Assay results published in US11572341B2, “Biguanide compound and use thereof” (ImmunoMet Therapeutics Inc., priority 2014, dated 2023).
Like-named read-outs stand apart in the source and are kept apart here.

What was measured:
[1] = system: AMPKa [pT172]; experiment: AMPKa activation [pT172] in MCF7 cell; assay type: cell-based
[2] = system: HCT116 cells; experiment: Inhibitory effect against cancer cell proliferation (MTT); assay type: cell-based, human; conditions: HCT116, MTT, 48 hours, read-out: IC50 (uM) @ HCT116
Procedure: The formazane crystals thus formed were dissolved using dimethyl sulfoxide (DMSO) and absorbance of the solution was measured at 560 nm. After culturing for 48 hours, […] synthesized in Examples was indicated as cell viability (%) according to each treated concentration.

Molecule	IC50 ([2]; Homo sapiens, HCT-116) [µM]	AMPKa activation [pT172] (Unit/ml) @ MCF7 cell ([1]; 5 uM) [Unit/ml]	AMPKa activation [pT172] (Unit/ml) @ MCF7 cell ([1]; 10 uM) [Unit/ml]	AMPKa activation [pT172] (Unit/ml) @ MCF7 cell ([1]; 50 uM)	IC50 [2] [µM]
CC1CCN(C(=N)NC(=N)Nc2ccc(C(F)(F)F)cc2)CC1.Cl [Example 53, N1-(4-methyl)piperidin-N5-(4-trifluoromethyl)phenyl Biguanide Hydrochloride]	6.1	9.2	13.9	cell death	–
CCCCN(C)C(=N)NC(=N)N.Cl [Example 134, N1-methyl-N1-butyl Biguanide Hydrochloride]	> 100	–	–	16.2 Unit/ml	–
Cl.N=C(N)NC(=N)N1CCCCC1 [Example 123, N1-piperidine Biguanide Hydrochloride]	> 100	6.6	7.5	12.6 Unit/ml	–
N1-(3,5-dimethyl)piperidin-N5-(4-trifluoromethyl)phenyl Biguanide Hydrochloride [Example 63]	–	15.1	22.9	cell death	2.8
Cl.N=C(N)NC(=N)Nc1ccccc1C(F)(F)F [Example 119, N1-(2-trifluoromethyl)phenyl Biguanide Hydrochloride]	3.5	6.9	8.8	8.5 Unit/ml	–
CN1CCN(C(=N)NC(=N)NCc2ccc(C(F)(F)F)cc2)CC1.Cl [Example 18, N1-(4-methyl)piperazin-N5-(4-trifluoromethyl)benzyl Biguanide Hydrochloride]	> 100	7.1	8.6	13.3 Unit/ml	–
COC1CCN(C(=N)NC(=N)N2CCCC(C)C2)CC1.Cl (centres unmarked) [Example 45, N1-(3-methyl)piperidin-N5-(4-methoxy)piperidine Biguanide Hydrochloride]	> 100	3.0	4.0	3.5 Unit/ml	–

Continued, in another order:

IC50 ([2]; Homo sapiens, HCT-116) [µM]	Molecule	AMPKa activation [pT172] (Unit/ml) @ MCF7 cell ([1]; 5 uM) [Unit/ml]	AMPKa activation [pT172] (Unit/ml) @ MCF7 cell ([1]; 10 uM) [Unit/ml]	AMPKa activation [pT172] (Unit/ml) @ MCF7 cell ([1]; 50 uM)	IC50 [2] [µM]
> 100	CC1CNC(NC(=N)N2CCCCC2)=NC1=O.Cl (centres unmarked) [Example 155, N-(5-methyl-4-oxo-1,4,5,6-tetrahydropyrimidin-2-yl)piperidin-1-carboximidamide Hydrochloride]	3.3	2.8	3.9 Unit/ml	–
> 100	CCCc1ccccc1NC(=N)NC(=N)N.Cl [Example 121, N1-(2-propyl)phenyl Biguanide Hydrochloride]	–	–	9.0 Unit/ml	–
> 100	CCCN(CCC)C(=N)NC(=N)N(C1CCCCC1)C1CCCCC1.Cl [Example 15, N1,N1-dipropyl-N5,N5-dicyclohexyl Biguanide Hydrochloride]	–	–	6.1 Unit/ml	–
> 100	Cl.N=C(N)NC(=N)NCc1ccc(C(F)(F)F)cc1 [Example 141, N1-(4-trifluoromethyl)benzyl Biguanide Hydrochloride]	5.6	6.1	10.3 Unit/ml	–
105	Cl.N=C(N)N/C(=N/CCc1ccccc1)Nc1ccccc1 [Example 94, N1-phenyl-N2-phenethyl Biguanide Hydrochloride]	–	–	9.0 Unit/ml	–
> 100	Cl.N=C(NC(=N)N1CC=CC1)Nc1cccnc1 [Example 66, N1-2,5-dihydro-1H-pyrrol-N5-pyridin-3-yl Biguanide Hydrochloride]	3.3	3.7	4.1 Unit/ml	–
